# Tests used:
# [1] = Degree of fusion with anionic liposome (Example 9); settings: liposome compound/cholesterol/PEG-Glu2C18, 37°C, 30 minutes
# Method: In a manner similar to that in Example 2, the degree of fusion of the pH-responsive liposome with respect to the anionic liposome (DOPC/DPPG, 5/1 (molar ratio)) was calculated. The measurement method was as follows. 50 μL of 1 mM anionic liposome and 50 μL of 9 mM (converted to the mixed lipid basis) pH-responsive liposome were added to 1.9 mL of each of acetate buffers with different pHs and allowed to stand at 37° C. 30 minutes later, […] of the mixture was dividedly poured and added to 1.9 mL of HEPES buffer (pH 7.4). The resultant mixture was transferred to a quartz cell and subjected to fluorescence measurement (λex: 460 nm, 530 nm). The measurement was carried out using RF-5300PC manufactured by Shimadzu.
# [2] = Preparation of liposome from mixed lipid (dispersion in water, high-pressure extrusion); type: physicochemical; settings: mixed lipid compound/cholesterol/PEG-Glu2C18 dispersed in water, high-pressure extrusion 0.22 μm
# Method: (§1) Compound 7, 8 or 9 (0.177 mmol), cholesterol (0.179 mmol) and PEG-Glu2C18 (1.0 μmol) were dissolved in benzene, and the mixture was freeze-dried to prepare a mixed lipid. 20 mg of this mixed lipid was dispersed in 1 mL of water for injection, and the resultant mixture was stirred for 6 hours. After that, liposome having a particle size of about 240 nm was prepared by means of the high-pressure extrusion method (final pore diameter: 0.22 μm).
# as §1, with “Compound 3, 12” for “Compound 7, 8”, “or 13” for “or 9”, “(1.0 mmol)” for “(1.0 μmol)”
compound,measurement,setting,value
CCCCCCCCCCCCCCCCOC(=O)CCC(NC(=O)C(CCCCNC(=O)C(N)CCC(=O)O)NC(=O)C(N)CCC(=O)O)C(=O)OCCCCCCCCCCCCCCCC (stereo not drawn) [Compound 3],degree of fusion,[1]; pH 5.5 (maximum),about 60%
same,degree of fusion,[1]; pH 7.4,about 15%
same,liposome formation with the compound as main component,[2],liposome was formed
